Measured values published in patent US20220274965A1, “ANTIVIRAL AGENTS AND USES THEREOF” (GRIFFITH UNIVERSITY, priority 2019, published 2022).
pIC50: −log10 of the molar value. Where two headings read alike, the source gives them in different places.

Tests used:
[1] = target: hPIV-3 strain C243 neuraminidase (UniProt P08492, species not given/STRAIN_C243); format: biochemical
[2] = system: hPIV-1 strain C35; assay: Haemagglutination inhibition (HI) assay with human red blood cells; format: biochemical; conditions: hPIV1 C35
[3] = system: hPIV-3 strain JS; assay: as above; format: biochemical; conditions: hPIV3 JS
[4] = system: hPIV-3 strain CI002 (clinical isolate); assay: as above; format: biochemical; conditions: hPIV3 CI002
[5] = system: hPIV-3 strain C243; assay: as above; format: biochemical; conditions: hPIV3 C243
[6] = target: hPIV-3 strain CI002 (clinical isolate) neuraminidase (UniProt P08492, species not given/STRAIN_CI002); format: biochemical; conditions: hPIV3 CI002; read-out: NI IC50
hPIV-3 strain CI002 (clinical isolate) neuraminidase, sequence (P08492 whole entry, change not shown): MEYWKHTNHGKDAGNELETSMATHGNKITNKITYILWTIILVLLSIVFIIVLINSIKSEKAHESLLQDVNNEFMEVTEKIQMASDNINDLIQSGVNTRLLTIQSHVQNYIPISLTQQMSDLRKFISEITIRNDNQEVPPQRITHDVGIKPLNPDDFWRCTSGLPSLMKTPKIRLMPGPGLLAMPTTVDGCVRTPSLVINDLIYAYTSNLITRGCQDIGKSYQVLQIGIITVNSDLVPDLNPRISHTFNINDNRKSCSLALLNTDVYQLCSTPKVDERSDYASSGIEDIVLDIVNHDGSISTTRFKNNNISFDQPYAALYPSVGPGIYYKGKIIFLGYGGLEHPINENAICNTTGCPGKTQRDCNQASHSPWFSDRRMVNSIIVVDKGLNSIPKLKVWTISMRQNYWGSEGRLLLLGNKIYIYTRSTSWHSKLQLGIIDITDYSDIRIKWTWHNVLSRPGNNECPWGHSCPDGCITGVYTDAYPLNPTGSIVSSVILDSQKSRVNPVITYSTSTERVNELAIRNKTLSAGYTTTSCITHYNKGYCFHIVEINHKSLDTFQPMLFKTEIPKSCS

[7] = system: hPIV-3 strain CI002 (clinical isolate); assay: In situ ELISA virus growth inhibition in LLC-MK2 cells; format: cell-based; conditions: Human respirovirus 3, LLC-MK2; hPIV3 CI002
[8] = system: hPIV-3 strain C243; assay: as above; format: cell-based; conditions: Human respirovirus 3, LLC-MK2; hPIV3 C243; Table 2
[9] = system: hPIV-3 strain JS; assay: as above; format: cell-based; conditions: Human respirovirus 3, LLC-MK2; hPIV3 JS
[10] = hPIV-3 strain C243, Table 1, read-out: NI (IC50)
[11] = hPIV3 C243, Table 2, read-out: NI IC50

hPIV-3 strain C243 neuraminidase, sequence (P08492 whole entry, change not shown): as above

| SMILES | pIC50 [1, 10] | pIC50 [2] | pIC50 [3] | pIC50 [4] | pIC50 [1, 11] | further results |
| --- | --- | --- | --- | --- | --- | --- |
| CC(=O)N[C@H]1[C@H]([C@H](O)[C@H](O)CO)OC(C(=O)O)=C[C@@H]1n1cc(-c2ccccc2NC(=O)CCCCCn2cc(C(=O)O)nn2)nn1 [IE1826-34] | 4.78 |  |  |  |  |  |
| CC(=O)N[C@H]1[C@H]([C@H](O)[C@H](O)CO)OC(C(=O)O)=C[C@@H]1n1cc(-c2ccccc2NS(C)(=O)=O)nn1 [IE1778-12] | 4.54 |  |  |  |  |  |
| CC(=O)N[C@H]1[C@H]([C@H](O)[C@H](O)CO)OC(C(=O)O)=C[C@@H]1n1cc(-c2ccccc2NS(C)(=O)=O)nn1 [drawing 111] |  | < 3.70 | 4.55 | 4.22 |  |  |
| CC(C)C(=O)N[C@H]1[C@H]([C@H](O)[C@H](O)CO)OC(C(=O)O)=C[C@@H]1n1cc2cc(C(=O)O)ccc2n1 |  |  |  |  | 3.64 | pIC50 [5]: < 3.70; pIC50 [6]: 3.79 |
| O=C(O)C1=C[C@H](n2cc3ccc4ccccc4c3n2)[C@@H](NC(=O)C(F)(F)F)[C@H]([C@H](O)[C@H](O)CO)O1 [IE1530-69] | 5.55 |  |  |  |  |  |
| CC(C)C(=O)N[C@H]1[C@H]([C@H](O)[C@H](O)CO)OC(C(=O)O)=C[C@@H]1n1cc2ccc(C(=O)O)cc2n1 |  | < 3.70 | < 3.70 | < 3.70 | 3.68 | pIC50 [6]: 3.42 |
| O=C(O)C1=C[C@H](n2cc3c(Br)cccc3n2)[C@@H](NC(=O)C(F)(F)F)[C@H]([C@H](O)[C@H](O)CO)O1 |  | 5.31 |  | 5.13 | 5.40 | pIC50 [6]: 5.05 |
| CC(=O)N[C@H]1[C@H]([C@H](O)[C@H](O)CO)OC(C(=O)O)=C[C@@H]1n1cc(-c2ccccc2NS(=O)(=O)c2ccc([N+](=O)[O-])cc2)nn1 |  | < 3.70 | 5.35 | 4.86 |  | pIC50 [5]: 5.59; pIC50 [7]: 4.54 |
| CC(=O)N[C@H]1[C@H]([C@H](O)[C@H](O)CO)OC(C(=O)O)=C[C@@H]1n1cc(-c2ccccc2NC(=O)CNS(=O)(=O)c2cccc([N+](=O)[O-])c2)nn1 |  | < 3.70 | 4.81 | 4.35 |  | pIC50 [7]: 4.00 |
| CC(=O)N[C@H]1[C@H]([C@H](O)[C@H](O)CO)OC(C(=O)O)=C[C@@H]1n1cc(-c2ccccc2NC(=O)CCNC(=O)C2CC2)nn1 |  |  | < 3.60 | < 3.70 | 4.52 | pIC50 [5]: < 3.70; pIC50 [8]: 3.98; pIC50 [9]: 3.22 |
| CC(=O)N[C@H]1[C@H]([C@H](O)[C@H](O)CO)OC(C(=O)O)=C[C@@H]1n1cc2ccccc2n1 [IE1530-66] | 4.03 |  |  |  |  |  |
| CC(=O)N[C@H]1[C@H]([C@H](O)[C@H](O)CO)OC(C(=O)O)=C[C@@H]1n1cc(-c2ccccc2NC(=O)CO)nn1 [IE1778-25] | 4.55 |  |  |  |  |  |
| CC(=O)N[C@H]1[C@H]([C@H](O)[C@H](O)CO)OC(C(=O)O)=C[C@@H]1n1cc(-c2ccccc2NC(=O)CCNS(=O)(=O)c2ccc([N+](=O)[O-])cc2)nn1 |  | < 3.70 | 4.41 | < 3.70 |  | pIC50 [7]: 3.54 |
| N#Cc1ccc2cn([C@H]3C=C(C(=O)O)O[C@@H]([C@H](O)[C@H](O)CO)[C@@H]3NC(=O)C(F)(F)F)nc2c1 |  | < 3.70 | < 3.70 | < 3.70 | 4.30 | pIC50 [6]: 3.68 |
| CC(=O)N[C@H]1[C@H]([C@H](O)[C@H](O)CO)OC(C(=O)O)=C[C@@H]1n1cc(-c2ccccc2NC(=O)CCCCCN=[N+]=[N-])nn1 [IE1826-23] | 4.16 |  |  |  |  |  |
| N#Cc1ccc2nn([C@H]3C=C(C(=O)O)O[C@@H]([C@H](O)[C@H](O)CO)[C@@H]3NC(=O)C(F)(F)F)cc2c1 |  | 4.18 | 3.88 | < 3.70 | 4.32 | pIC50 [6]: 3.84 |
| CC(=O)N[C@H]1[C@H]([C@H](O)[C@H](O)CO)OC(C(=O)O)=C[C@@H]1n1cc2ccc3ccccc3c2n1 [IE1530-65] | 4.99 |  |  |  |  |  |
| CC(=O)Nc1ccccc1-c1cn([C@H]2C=C(C(=O)O)O[C@@H]([C@H](O)[C@H](O)CO)[C@@H]2NC(C)=O)nn1 |  | < 3.70 | 4.40 | < 3.70 |  | pIC50 [8]: 3.90; pIC50 [9]: 3.39 |
| CC(=O)N[C@H]1[C@H]([C@H](O)[C@H](O)CO)OC(C(=O)O)=C[C@@H]1n1nnc2c3ccccc3ccc21 [IE1778-64] | 5.38 |  |  |  |  |  |
